Source: ChEMBL document CHEMBL1157432, “Effect of linkage geometry on biological activity in thiourea- and guanidine-substituted acridines and platinum-acridines” (Bioorg Med Chem Lett, 2008)

Assays:
[1] = tested on: NCI-H460; experiment: Cytotoxicity against human NCI-H460 cells after 72 hrs by MTS method; assay type: functional, cell-based; settings: NCI-H460, 72 h
[2] = tested on: HL-60; experiment: Cytotoxicity against human HL60 cells after 72 hrs by MTS method; assay type: functional, cell-based; settings: HL-60, 72 h
[3] = Dissociation constant, pKa of the compound; assay type: physicochemical

Work on CNC(=S)N(C)CCNC(=O)c1cccc2cc3ccccc3nc12 yielded an IC50 [1] of 30.9 µM and an IC50 [2] greater than 100 µM.

CNC(=N)N(C)CCNC(=O)c1cccc2cc3ccccc3nc12 gave an IC50 [1] greater than 100 µM and an IC50 [2] of 8.4 µM.

With CNC(=S)N(C)CCNc1c2ccccc2nc2ccccc12 [ACRAMTU] the pKa [3] was 9.

CNC(=N)N(C)CCNc1c2ccccc2nc2ccccc12 gave an IC50 [1] of 10.3 µM, a pKa [3] of 9 and an IC50 [2] of 79.7 µM.
